Counter-ions that a name gives are not always drawn. Like-named read-outs stand apart in the source and are kept apart here.
Columns and labels:
[1] = test system: mouse whole spleen lymphocytes (LPS-induced B cell activation and proliferation); test: LPS-induced lymphocyte proliferation assay (3H-thymidine); format: cell-based; conditions: for IC50: LPS 10 μg/ml, 48 hours, 3H-thymidine, read-out: LPS IC50
Procedure: BALB/c mice were sacrificed by cervical dislocation, and spleens were aseptically excised to prepare whole spleen lymphocytes. The cells were adjusted to the required concentration.
A suspension of mouse spleen lymphocytes was inoculated into a 96-well plate at 5×10^5/well, and ConA (final concentration: 1 μg/ml) or LPS (final concentration: 10 μg/ml) and the above 10 concentration gradients of the compound were added. Corresponding cell control wells without ConA and LPS, as well as medicament-free stimulated control wells, were set up. The cells were cultured in a 37° C., 5% CO2 incubator for 48 hours. Eight hours before the end of the culture, ^3H-thymidine was added, and the culture continued until the end of the experiment (i.e., the aforementioned 48 hours). The cells were collected onto glass fiber membranes using a cell collector.
ConA and LPS, as mitogens, stimulated proliferation and differentiation of T and B lymphocytes, respectively. This process is similar to the activation process of lymphocytes in vivo. Therefore, mitogen-induced lymphocyte proliferation is commonly used as an indicator to evaluate functionality of lymphocytes.

IL-1β = IL-1β secretion by TLRs-L-stimulated mouse whole spleen lymphocytes (ELISA); format: cell-based; conditions: Lymphocyte, 48 h, read-out: IB-1β IC50
Procedure: (§1) BALB/c mice were sacrificed by cervical dislocation, and spleens were aseptically excised to prepare whole spleen lymphocytes. The cells were adjusted to 5×10^6 cells/ml. Hydroxychloroquine sulfate was diluted with a 3-fold gradient into 3 concentrations starting from 30 μM: 30, 10 and 3 μM; naphthoquine phosphate was diluted with a 3-fold gradient into 3 concentrations starting from 10 μM: 10, 3 and 1 μM.
(§2) Mouse spleen lymphocytes were inoculated into a 96-well plate at 100 μl/well, and the stimulant TLR4-L (final concentration: 10 μg/ml), TLR7-L (final concentration: 5 μg/ml) or TLR9-L (final concentration: 1 μM) and the compounds diluted with the above concentration gradients were added. A corresponding stimulation control and a cell control (without stimulation) were set up. The cells were cultured in a 37° C., 5% CO2 incubator for 48 hours. After the end of the culture, the cell culture supernatants were collected, and the levels of IL-1β, IL-6, and IL-10 were measured by ELISA.

IgM = IgM secretion by TLRs-L-stimulated mouse whole spleen lymphocytes (ELISA); format: cell-based; conditions: Lymphocyte, 120 h
Procedure: as §1
as §2, with “120” for “48”, “IgG” for “IL-1β, IL-6,”, “IgM” for “IL-10”

IgG = IgG secretion by TLRs-L-stimulated purified mouse B cells (ELISA); format: cell-based; conditions: B-cell, 120 h, stimulant TLR4-L 10 μg/ml
Procedure: BALB/c mice were sacrificed by cervical dislocation, and spleens were aseptically excised to prepare spleen lymphocytes. The cells were adjusted to 1×10^8 cells/ml, blocked with 2.4G2 (final concentration: 10 μg/ml) for 20 min, cultured with PE-CD19 (final concentration: 5 μg/ml) for 20 min, washed with MACS buffer, centrifuged at 4° C., 300G for 10 min, 100 μl anti-PE beads were added per 1×10^8 cells, incubated with 900 μl MACS buffer for 15 min, washed with MACS buffer, centrifuged at 4° C., 300G for 10 min. The supernatant was discarded. 500 μl MACS buffer was added per 1×10^8 cells to resuspend the cells. MACS column was used for separation. Magnetically labeled cells were retained on the column. The MACS column was removed from the magnetic field and then eluted.
A suspension of purified mouse B cells was inoculated into a 96-well plate at 4×10^5/well. Hydroxychloroquine sulfate was diluted with a 2-fold gradient into 3 concentrations, starting from 8 μM: 8, 4 and 2 μM. Naphthoquine phosphate was diluted with a 2-fold gradient into 3 concentrations starting from 0.5 μM.: 0.5, 0.25 and 0.125 μM. […] After the end of the culture, the cell culture supernatants were collected, and the levels of IgG and IgM were measured by ELISA.

[2] = Cytotoxicity (CC50) on mouse whole spleen lymphocytes, Example 3; format: cell-based; conditions: BALB/c; mouse whole spleen lymphocytes (Tables 3 and 4)
Procedure: as §1

IL-10 = IL-10 secretion by TLRs-L-stimulated mouse whole spleen lymphocytes (ELISA); format: cell-based; conditions: Lymphocyte, 48 h
Procedure: as §1, §2

[3] = test system: collagen-specific antibodies; test: Anti-CII antibody levels in serum of arthritic mice (ELISA); format: in vivo, mouse; conditions: intragastric, FIG. 4
Procedure: Normal group, model group, positive medicament (1 mg/kg dexamethasone) group, naphthoquine phosphate (25, 50, 100 mg/kg) groups, hydroxychloroquine sulfate (100 mg/kg) group.
10 mg of Type II Collagen (CII) was swollen in 2.5 ml of 0.1 mol/L glacial acetic acid to prepare a 4 mg/ml CII solution. This solution was fully emulsified with an equal volume of CFA, and injected subcutaneously (50 μl) at the base of the tail of mice. After 21 days, 4 mg/ml CII solution was fully emulsified with an equal volume of IFA. This mixture was injected subcutaneously (50 μL) at the base of the tail of mice to boost the immune response.
50 μl CII solution (final concentration: 50 μg/ml) was added to each well of a 96-well ELISA plate for coating overnight. The plate was washed 4 times with 200 μl washing solution (1L PBS+500 μl Tween 20) per well. 100 μl 1% BSA was added to each well to block for 1 hour. The plate was then washed 4 times with 200 μl washing solution per well. 50 μl diluted serum samples from each group of mice were added to each well and incubated for 2 hours. The plate was washed 4 times with 200 μl washing solution per well. Horseradish Peroxidase (HRP)-conjugated IgG secondary antibody was added and incubated for 1 hour. […] Absorbance values at 450 nm/570 nm were read by a microplate reader (Spectra Max 190, Molecular Devices).

CCN(CCO)CCCC(C)Nc1ccnc2cc(Cl)ccc12 (centres unmarked) [Hydroxychloroquine Sulfate, hydroxychloroquine sulfate]
IC50 ([1]; listed as Hydroxychloroquine Sulfate (Zhongxi Sunve)): 14.9 µM
IC50 ([1]; Mus musculus, Lymphocyte): 14.9 µM
IC50 (IL-1β; stimulant TLR4-L 10 μg/ml): 32 µM
IC50 (IL-1β; stimulant TLR9-L 1 μM): 41.6 µM
IC50 (IgM; stimulant TLR4-L 10 μg/ml): 25300 nM
IC50 (IgM; stimulant TLR7-L 5 μg/ml): 19200 nM
IC50 (IgM; stimulant TLR9-L 1 μM): 2510 nM
IC50 (IgG): > 8000 nM
CC50 [2]: 26.9 µM
IC50 (IL-10; stimulant TLR4-L 10 μg/ml): 3190 nM
IC50 (IL-10; stimulant TLR7-L 5 μg/ml): 1110 nM
IC50 (IL-10; stimulant TLR9-L 1 μM): 3300 nM

CC(C)(C)NCc1cc(Nc2ccnc3cc(Cl)ccc23)c2c(c1O)CCCC2.O=P(O)(O)O.O=P(O)(O)O [Naphthoquine Phosphate, Naphthoquine phosphate]
levels of collagen-specific antibodies in serum of arthritic mice [3]: reduce
IC50 ([1]; Mus musculus, Lymphocyte): 0.08 µM
effect on LPS-induced B cell activation and proliferation ([1]; in words): significant inhibitory activity
IC50 (IL-1β; stimulant TLR4-L 10 μg/ml): 3.35 µM
IC50 (IgM; stimulant TLR4-L 10 μg/ml): 845 nM
IC50 (IgM; stimulant TLR9-L 1 μM): 2030 nM
IC50 (IgG): 410 nM
CC50 [2]: 1.59 µM
IC50 (IL-10; stimulant TLR4-L 10 μg/ml): 106 nM
IC50 (IL-10; stimulant TLR7-L 5 μg/ml): 39 nM
IC50 (IL-10; stimulant TLR9-L 1 μM): 190 nM

Source: patent publication US20250332154A1, “USE OF NAPHTHOQUINE PHOSPHATE IN PREPARATION OF A MEDICAMENT FOR TREATING AUTOIMMUNE DISEASES” (SHANGHAI PHARMACEUTICALS INDUSTRY CO., LTD, priority 2022, published 2025)
